Measured values published in patent publication US11369605B2, “Optically active azabicyclo ring derivative” (priority 2018, dated 2022).

Key:
[1] = tested on: RS4; 11 cells; experiment: Test 2: inhibition of cell proliferation, RS4; 11; type: cell-based
Method: (§1) Test for Evaluating the Inhibition of Cell Proliferation RS4; 11 cells were obtained from American Type Culture Collection (ATCC). […] MOLM-13 cells were separately obtained from DSMZ (Deutsche Sammlung von Mikroorganismen und Zeilkulturen GmbH). […] The cells were plated to a 96-well plate in 2000 cells/well, each test compound was added thereto to adjust the final concentration of DMSO to 0.1% of DMSO, and the cells were cultured for 7 days. After the cultivation, the cell viability was calculated with PrestoBlue™ Cell Viability Reagent (Invitrogen, A13261).

[2] = target: Menin-MLL binding (His-Menin1-615, MLL1-172-FLAG) (Homo sapiens (Human), UniProt O00255); experiment: Test 1: inhibition of the Menin-MLL binding (HTRF); conditions: summary of Test 1 table
Method: Test 1: Test for Evaluating the Inbinition of the Menin-MLL Binding
After the incubation, the signal was detected with RUBYstar (BMG LABTECH).

[3] = target: hERG (human Ether-a-go-go Related Gene) (Homo sapiens (Human), UniProt Q12809); experiment: Test 4: hERG inhibition (QPatch HT)
[4] = tested on: HOXA9 mRNA in MV4; 11 cells; experiment: Test 3: inhibition of mRNA transcription, HOXA9; type: cell-based; conditions: 20 to 24 hours, fitted with GAPDH
Method: (§2) Test 3: Test for the Inhibition of mRNA Transcription with Test Compounds
(§3) MV4; 11 cells were obtained from American Type Culture Collection (ATCC). […] After the incubation, the total RNA was extracted from the cells with RNeasy™ Mini Kit (QIAGEN, 74106), and cDNA was synthesized with Superscript™ VILO™ cDNA Synthesis Kit (Invitrogen, #11754250). By using TaqMan™ Gene Expression Master Mix (Applied Biosystems, 4369016) and TaqMan™ probe (Applied Biosystems), the expression level of mRNA was quantified from the obtained cDNA with 7900HT (Applied Biosystems). The expression level of each obtained gene (MEIS1 and HOXA9) was fitted with the expression level of mRNA of GAPDH.

[5] = tested on: MEIS1 mRNA in MV4; 11 cells; experiment: Test 3: inhibition of mRNA transcription, MEIS1; type: cell-based; conditions: for mRNA transcription inhibition activity (in words): MEIS1 and HOXA9, MV4, summary of Test 3; for mRNA at 1 μM (% control) MEIS1: MV4, 1 μM, 20 to 24 hours, fitted with GAPDH
Method: as §2, §3

[6] = tested on: MOLM-13 cells; experiment: Test 2: inhibition of cell proliferation, MOLM-13; type: cell-based; conditions: Homo sapiens, cultured 7 days, PrestoBlue
Method: as §1

hERG (human Ether-a-go-go Related Gene), sequence (Q12809 whole entry): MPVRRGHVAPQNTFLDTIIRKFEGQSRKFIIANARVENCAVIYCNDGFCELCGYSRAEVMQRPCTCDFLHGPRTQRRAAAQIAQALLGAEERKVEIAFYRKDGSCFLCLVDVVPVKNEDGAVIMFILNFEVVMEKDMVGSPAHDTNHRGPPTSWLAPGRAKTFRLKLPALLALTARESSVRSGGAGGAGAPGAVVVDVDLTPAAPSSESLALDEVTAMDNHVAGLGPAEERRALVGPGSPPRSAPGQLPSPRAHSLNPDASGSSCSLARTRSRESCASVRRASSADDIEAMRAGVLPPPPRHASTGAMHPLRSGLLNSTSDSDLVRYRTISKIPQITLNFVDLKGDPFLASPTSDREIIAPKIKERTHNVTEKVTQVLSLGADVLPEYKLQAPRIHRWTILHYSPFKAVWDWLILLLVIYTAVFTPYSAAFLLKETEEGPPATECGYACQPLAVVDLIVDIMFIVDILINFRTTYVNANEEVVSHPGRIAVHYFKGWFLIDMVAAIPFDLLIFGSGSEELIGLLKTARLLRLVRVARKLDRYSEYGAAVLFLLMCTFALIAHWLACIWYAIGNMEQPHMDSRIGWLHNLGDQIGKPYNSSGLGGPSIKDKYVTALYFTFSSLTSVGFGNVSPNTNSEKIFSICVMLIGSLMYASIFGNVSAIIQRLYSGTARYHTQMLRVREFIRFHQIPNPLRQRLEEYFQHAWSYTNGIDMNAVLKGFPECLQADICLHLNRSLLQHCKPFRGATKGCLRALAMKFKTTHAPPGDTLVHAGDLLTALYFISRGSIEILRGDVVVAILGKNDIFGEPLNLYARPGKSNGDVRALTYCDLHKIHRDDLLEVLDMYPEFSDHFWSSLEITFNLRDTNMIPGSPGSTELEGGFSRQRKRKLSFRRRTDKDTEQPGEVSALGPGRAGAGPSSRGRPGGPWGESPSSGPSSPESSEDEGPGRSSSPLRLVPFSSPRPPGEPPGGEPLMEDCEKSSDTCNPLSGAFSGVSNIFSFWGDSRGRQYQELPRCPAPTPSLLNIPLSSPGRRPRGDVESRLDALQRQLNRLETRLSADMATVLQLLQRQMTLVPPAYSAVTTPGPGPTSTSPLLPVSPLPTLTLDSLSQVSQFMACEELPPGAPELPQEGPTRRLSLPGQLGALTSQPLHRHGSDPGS
Menin-MLL binding (His-Menin1-615, MLL1-172-FLAG), sequence (O00255 other isoform, or with tags, fused parts or gaps): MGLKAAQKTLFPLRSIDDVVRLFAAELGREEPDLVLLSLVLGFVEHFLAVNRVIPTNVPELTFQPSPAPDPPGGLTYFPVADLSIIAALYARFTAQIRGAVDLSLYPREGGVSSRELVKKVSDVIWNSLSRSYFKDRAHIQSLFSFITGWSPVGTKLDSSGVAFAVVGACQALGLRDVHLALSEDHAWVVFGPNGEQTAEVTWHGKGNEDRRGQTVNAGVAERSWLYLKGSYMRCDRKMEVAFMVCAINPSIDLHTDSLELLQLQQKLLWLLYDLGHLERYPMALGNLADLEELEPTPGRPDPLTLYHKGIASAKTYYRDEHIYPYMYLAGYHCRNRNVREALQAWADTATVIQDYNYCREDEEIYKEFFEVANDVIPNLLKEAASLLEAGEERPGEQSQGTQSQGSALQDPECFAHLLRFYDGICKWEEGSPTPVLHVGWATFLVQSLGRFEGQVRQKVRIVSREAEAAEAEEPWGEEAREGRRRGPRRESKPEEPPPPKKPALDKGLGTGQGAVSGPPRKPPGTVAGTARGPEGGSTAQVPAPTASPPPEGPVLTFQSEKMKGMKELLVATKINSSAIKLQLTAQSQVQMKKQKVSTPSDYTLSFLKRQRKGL

Compound	cell proliferation inhibition activity (in words) ([1]; summary of Test 2 (RS4; 11 and MOLM-13))	Menin-MLL binding inhibition activity (in words) [2]	IC50 ([3]; read-out: hERG inhibition IC50, CHO cell strain stably expressing hERG) [nM]	gap between RS4; 11 proliferation IC50 and hERG current IC50 ([3]; summary of Test 4 table)	mRNA at 1 μM (% control) HOXA9 [4] [% control]	mRNA transcription inhibition activity (in words) [5]	mRNA at 1 μM (% control) MEIS1 [5] [% control]	IC50 ([1]; Homo sapiens, RS4, 11 cells, cultured 7 days, PrestoBlue) [nM]	IC50 [6] [nM]
2-[(4-{6-[(1R,3S,4R)-2-azabicyclo[2.2.2]octane-3-carbonyl]-2,6-diazaspiro[3.3]heptan-2-yl}pyrimidin-5-yl)oxy]-5-fluoro-N,N-di(propan-2-yl)benzamide [Example 11]	potent	potent	> 10000	more than 100 fold	36.5	showed the mRNA transcription inhibition activity	13.1	–	–
C=C1C[C@@H]2CC[C@H]1[C@@H](C(=O)N1CC3(C1)CN(c1ncncc1Oc1ccc(F)cc1C(=O)N(C(C)C)C(C)C)C3)N2 [Example 7, 5-fluoro-2-[(4-{6-[(1S,3S,4R)-5-methylidene-2-azabicyclo[2.2.2]octane-3-carbonyl]-2,6-diazaspiro[3.3]heptan-2-yl}pyrimidin-5-yl)oxy]-N,N-di(propan-2-yl)benzamide]	–	–	–	–	37.9	showed the mRNA transcription inhibition activity	12.7	10	30
